Data taken from US20230220331A1, “TEMPORARY TREATMENT MEDIUM, TREATMENT KIT, EMBRYOGENESIS ARREST INHIBITOR, EMBRYOGENESIS ARREST INHIBITORY METHOD, DEVELOPMENTAL ENGINEERING PRODUCT PREPARATION METHOD, TRANSPLANTATION METHOD, THERAPEUTIC METHOD, AND DEVELOPMENTAL ENGINEERING PRODUCT” (priority 2020, published 2023).

How the values were obtained:
[1] = test system: pig fertilized embryos that had undergone in vitro maturation and in vitro fertilization with frozen semen; experiment: Development of electroporated pig IVM/IVF embryos (Treatment Example 5); format: cell-based
Procedure: 1. On the day before TAKE, 5 drops of Y-27632-added PZM-5 medium (Y-27632 final concentration 10 μM, an example of the “temporary treatment medium” of this example) was dropped on a 35 mm Petri dish to prepare a drop coated with paraffin oil. In the drop of this example, 20 μL of medium was added dropwise, 1 mL of oil was added, then 20 μL of medium was added again, and the mixture was completely covered with oil. This drop produced twice as many as the TAKE.
2. IVF was performed based on a method common to those skilled in the art.
3. On the day after fertilization, IVF embryos were placed in Y-27632-added PZM-5 medium and cultured for about 30 minutes to 1 hour (temporary treatment).
4. After that, TAKE was performed.
5. The embryos were returned to Y-27632-free PZM-5 medium (an example of the “normal medium” of this example) and cultured under the conditions of 39° C., 5% CO2, and 5% O2.
6. If necessary, sampling, or the like, was performed at the development stage. If the culture is to be continued until the blastocyst stage, the drops containing Y-27632-free PZM-5 medium and PBM medium was made in the same way as the step of “1.” at four days after insemination.
7. […]
In addition, the effect of the temporary treatment medium of this example was measured on pig fertilized embryos that had undergone in vitro maturation and in vitro fertilization with frozen semen.

[2] = test system: Pronuclear stage embryo of C57BL/6J; experiment: Flox mouse production by the 2STEP method, Mecp2 / Drb1 (Treatment Example 2); format: cell-based
Procedure: 1. Up to 3 hours before TAKE, Y-27632-added mWM medium (Y-27632 final concentration 10 μM, an example of the “temporary treatment medium” of this example), Y-27632-free mWM medium (an example of “normal medium” of this example), 5 drops of each medium were dropped on 35 mm Petri dish, and then covered with paraffin oil. For the drops, twice the number of the drops plates to be performed TAKE were prepared.
2. Pronuclear stage embryos were collected, placed in Y-27632-added mWM medium, and cultured for about 30 minutes to 1 hour (temporary treatment).
3. After that, the first TAKE was performed.
3a. In the case of frozen eggs, after the first TAKE, they were placed in a Y-27632-added mWM medium and cultured for about 30 minutes to 1 hour (temporary treatment).
3b. In the case of unfrozen eggs, after the first TAKE, they were placed in a Y-27632-added mWM medium and cultured under 37° C. and 5% CO2 (5% O2) conditions until the next day (temporary treatment).
4. After the temporary treatment, the embryos were placed in Y-27632-free mWM medium and cultured at 37° C. and 5% CO2 (5% O2) conditions until the next day.
5. Both were confirmed at the next day, and the embryos at the 2-cell stage were subjected to the second TAKE.
6. After the second TAKE, the embryos were placed in Y-27632-added mWM medium and cultured for about 30 minutes to 1 hour (temporary treatment).
7. Then, they were transferred to Y-27632-free mWM medium. If necessary, culture was continued or embryo transfer was performed.
Therefore, in this preparation example, the temporary treatment medium containing Y-27632 was temporarily treated before and after the electroporation (EP) of the 2STEP method. Pronuclear stage embryo of C57BL/6J (CLEA Japan, Inc.) were used as an in-vitro-culture and female MCH (CLEA Japan, Inc.) were used as recipient.
The present inventors conducted an experiment to obtain Flox mice by the 2STEP method targeting the Mecp2 gene.
In Table 2, “m” indicates treatment with the normal medium, and “Y” indicates temporary treatment with the temporary treatment medium. […] That is, “m->m” uses the normal medium in the both step, “m->Y” was temporarily treated with the temporary treatment medium only in the first electroporation step, and “Y->Y” was temporarily treated with the temporary treatment medium in both steps.
In each column, the proportions that the loxP sequence is inserted only on the left side by the first electroporation step (Left loxP), the loxP sequence is inserted only on the right side by the second electroporation step (Right loxP), and both loxP sequences inserted by both steps (2loxP) were respectively shown.

[3] = test system: unfrozen pronuclear stage embryo (1 cell) of the inbred rat F344; experiment: Genome-edited individuals by unfrozen 1-cell TAKE of F344 (Treatment Example 16); format: cell-based; settings: F344 unfrozen 1 cell; for NUMBER OF NEWBORNS: 2× gRNA, 14 pulses, 20% reduction rate; for KO rate (Large deletion) (%): KO individuals / newborns analyzed
Text: Next, in the same manner as in Treatment Example 1 according to Example 1, a knock-out by the electroporation method was also produced in an unfrozen pronuclear stage embryo (1 cell) of the inbred rat F344. The conditions at this time were that the gRNA concentration was twice the specified amount, the pulse was 14 times, and the reduction rate was 20%.

[4] = test system: two-cell stage embryo of a heterologous inbred SPR2 mouse; experiment: Heterologous Tyr knockout mouse production (Treatment Example 8); format: cell-based, Mus spretus; settings: SPR2, Tyr KO
Procedure: 1. Up to 3 hours before TAKE, Y-27632-added mWM medium (Y-27632 final concentration 10 μM, an example of the “temporary treatment medium” of this example), Y-27632-free mWM medium (an example of “normal medium” of this example) were dropped into 35 mm Petri dishes by 5 drops, respectively, to prepare drops covered with paraffin oil.
2. Two-cell stage embryos were collected from the drops or thawed, placed in Y-27632-added mWM medium, and cultured for about 30 minutes to 1 hour (temporary treatment).
3. After that, TAKE was performed.
4. After TAKE, the embryos were placed in Y-27632-added mWM medium and cultured for about 30 minutes to 1 hour (temporary treatment). Then, the embryos were placed in Y-27632-free mWM medium and cultured at 37° C. under 5% CO2 and 5% O2 conditions until transplantation.
By using a two-cell stage embryo of a heterologous inbred SPR2 mouse, four guide RNAs (crRNA: tracrRNA) for the Tyr gene were used about 100 ng/μL per RNA, for a total of about 400 ng/μL, and it was electroporated once or twice. Before and after electroporation, the embryos were cultured in the temporary treatment medium of this example.

[5] = group Y → Y, 2STEP, Mecp2-Flox, blastocysts, listed as Y
[6] = group m → Y, 2STEP, target Mecp2-Flox

Question: For `C[C@@H](N)[C@H]1CC[C@H](C(=O)Nc2ccncc2)CC1` [Y-27632, trans-4-[(1R)-1-Aminoethyl]-N-4-pyrid inylcyclohexanecarboxamide], which “2-cell stage embryos developed into late blastocysts (proportion)” value [1] is on record?
Answer: 35 out of 123

Question: And the “Flox neonates obtained (%)” value ([2]; 2STEP, Mecp2, neonates, Y-27632 added)?
Answer: 4%

Question: And the “Left loxP (proportion inserted)” value ([2]; group Y → Y (temporary treatment in both steps), 2STEP, Mecp2-Flox)?
Answer: 1/15

Question: What about the “Left loxP (%)” value ([2]; group Y → Y, 2STEP, Mecp2-Flox) of the same compound?
Answer: (6.7%)

Question: What about the “Right loxP (%)” value ([2]; group Y → Y, 2STEP, Mecp2-Flox) of the same compound?
Answer: (13.3%)

Question: And the “Right loxP (proportion inserted)” value ([2]; group Y → Y, 2STEP, Mecp2-Flox)?
Answer: 2/15

Question: What about the “2loxP (%), Flox blastocysts” value ([2]; group Y → Y, 2STEP, Mecp2-Flox, blastocysts) of the same compound?
Answer: 7%

Question: And the “2loxP (%), Flox blastocysts” value [2, 5]?
Answer: (6.7%)

Question: And the “2loxP (proportion, Flox blastocysts)” value [2, 5]?
Answer: 1/15

Question: What about the “2loxP (%)” value [2, 6] of the same compound?
Answer: (0%)

Question: What about the “2loxP (proportion, both loxP inserted)” value [2, 6] of the same compound?
Answer: 0/17

Question: And the “Left loxP (%)” value [2, 6]?
Answer: (5.9%)

Question: And the “Left loxP (proportion inserted)” value [2, 6]?
Answer: 1/17

Question: What about the “Right loxP (%)” value [2, 6] of the same compound?
Answer: (5.9%)

Question: What about the “Right loxP (proportion inserted)” value [2, 6] of the same compound?
Answer: 1/17

Question: And the “inbred strains of Flox mice obtained by the 2STEP method” value ([2]; two types of genes (Mecp2, Drb1))?
Answer: obtained only from the experimental groups to which Y-27632 were added

Question: And the “NUMBER OF NEWBORNS” value ([3]; 25 TAKE embryos, 1 recipient)?
Answer: 4

Question: And the “Number of KO individuals (large deletion)” value ([3]; 25 TAKE embryos, 1 recipient, 4 newborns analyzed)?
Answer: 0

Question: What about the “KO rate (Large deletion) (%)” value ([3]; 25 TAKE embryos) of the same compound?
Answer: (0%)

Question: What about the “NUMBER OF NEWBORNS” value ([3]; 75 TAKE embryos, 3 recipients) of the same compound?
Answer: 16

Question: What about the “Number of KO individuals (large deletion)” value ([3]; 75 TAKE embryos, 3 recipients, 13 newborns analyzed) of the same compound?
Answer: 7

Question: What about the “KO rate (Large deletion) (%)” value ([3]; 75 TAKE embryos) of the same compound?
Answer: (53.8%)

Question: And the mosaics obtained ([4]; electroporated once)?
Answer: 3

Question: And the individuals obtained ([4]; electroporated once, 20 embryos transplanted)?
Answer: 7

Question: And the mosaics obtained ([4]; electroporated twice)?
Answer: 3

Question: What about the “whites (homo or compound heterozygote) obtained” value ([4]; electroporated twice) of the same compound?
Answer: 3

Question: What about the individuals obtained ([4]; electroporated twice, 13 embryos transplanted) of the same compound?
Answer: 7
